These compounds were tested against T1, human PDE2A1 (Homo sapiens, UniProt O00408) (assay: IMAP FP PDE selectivity panel, human PDE2A1). Details: Lab B; read-out: Human PDE2 Ki (nM) Lab B.
T1 construct: GST; purchased BPS Bioscience (San Diego, Calif.) 60020; host or cells: insect cells
Type: biochemical
How it was run: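 IMAP FP read-out, run at room temperature in parallel with PDE1–11: enzyme at 20% substrate conversion, 50 nM FAM-cAMP containing 1000 nM cGMP, Tris pH 7.2/MgCl2/DTT buffer. Compounds as ten 3-fold dilutions. Reaction 60 min, stopped with binding reagent for 1 h before polarization measurement.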

T1 sequence (O00408 1-920 isoform O00408-2): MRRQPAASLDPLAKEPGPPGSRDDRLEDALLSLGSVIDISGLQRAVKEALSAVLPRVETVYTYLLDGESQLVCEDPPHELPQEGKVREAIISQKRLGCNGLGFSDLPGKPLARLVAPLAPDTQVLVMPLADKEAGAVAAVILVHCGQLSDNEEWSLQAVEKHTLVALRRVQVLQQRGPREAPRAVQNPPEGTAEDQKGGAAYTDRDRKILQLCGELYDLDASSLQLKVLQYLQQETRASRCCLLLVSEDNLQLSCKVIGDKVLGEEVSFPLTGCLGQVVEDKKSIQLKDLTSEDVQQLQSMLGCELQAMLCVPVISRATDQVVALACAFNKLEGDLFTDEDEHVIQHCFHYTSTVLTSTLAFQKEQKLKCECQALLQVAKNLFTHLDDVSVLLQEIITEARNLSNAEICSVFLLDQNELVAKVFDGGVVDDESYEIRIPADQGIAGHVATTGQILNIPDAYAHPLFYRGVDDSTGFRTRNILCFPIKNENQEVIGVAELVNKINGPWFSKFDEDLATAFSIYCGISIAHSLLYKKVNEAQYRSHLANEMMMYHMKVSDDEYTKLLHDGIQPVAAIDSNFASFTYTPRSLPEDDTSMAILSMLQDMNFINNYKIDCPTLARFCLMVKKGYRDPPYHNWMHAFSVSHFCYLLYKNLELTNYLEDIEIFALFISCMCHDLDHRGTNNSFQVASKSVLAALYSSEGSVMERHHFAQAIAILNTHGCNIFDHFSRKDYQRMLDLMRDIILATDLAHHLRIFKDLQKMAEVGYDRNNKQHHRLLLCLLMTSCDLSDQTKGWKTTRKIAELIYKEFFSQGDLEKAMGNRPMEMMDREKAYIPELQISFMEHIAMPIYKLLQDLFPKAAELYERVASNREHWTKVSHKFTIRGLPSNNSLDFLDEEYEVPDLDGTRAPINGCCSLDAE

SMILES | Ki
Cc1cc(NC(C)(C)c2ccc(C(F)(F)F)cc2Cl)n2ncnc2n1 [Example 47, N-{1-[2-Chloro-4-(trifluoromethyl)phenyl]-1-methylethyl}-5-methyl [1,2,4]triazolo[1,5-a]pyrimidin-7-amine] | 161 nM
Cc1cc(N[C@H](C)c2ccc(C(C)C)cc2)n2ncnc2n1 [Example 13, 5-Methyl-N-{(1R)-1-[4-(1-methylethyl)phenyl]ethyl}[1,2,4] triazolo[1,5-a]pyrimidin-7-amine] | 122 nM
Cc1cc(NC(c2ccc(C(F)(F)F)cc2F)C(C)(C)O)n2ncnc2n1 (single isomer, unassigned) [Example 115, (1R or S)-1-[2-Fluoro-4-(trifluoromethyl)phenyl]-2-methyl-1-[(5-methyl [1,2,4]triazolo [1,5-a]pyrimidin-7-yl)amino] propan-2-ol] | 23 nM
OCc1cc(NC2(c3ccc(C(F)(F)F)cc3F)CC2)n2ncnc2c1 [Example 270, [5-({1-[2-Fluoro-4-(trifluoromethyl)phenyl]cyclopropyl}amino)[1,2,4]triazolo[1,5-a]pyridin-7-yl] methanol] | 101 nM
Cc1cc(NC2(c3ccc(SC(F)(F)F)c(F)c3)CCC2)n2ncnc2n1 [Example 66, N-(1-{3-Fluoro-4-[(trifluoromethyl)sulfanyl]phenyl}cyclobutyl)-5-methyl[1,2,4]triazolo[1,5-a] pyrimidin-7-amine] | 108 nM
CC(C)(C)c1ccc(C(Nc2cc(C(F)(F)F)nc3ncnn23)C(C)(C)O)cc1 (single isomer, unassigned) [Example 162, (1R or S)-1-(4-tert-Butylphenyl)-2-methyl-1-{[5-(trifluoromethyl) [1,2,4]triazolo [1,5-a]pyrimidin-7-yl]amino} propan-2-ol] | ~2050 nM
Cc1cc(N(C)C2(c3ccc(C(F)(F)F)c(F)c3)CC2)n2ncnc2n1 [Example 246] | 46 nM
Cc1cc(NC(c2ccc(C(C)(C)C)cc2)C(C)(C)O)n2ncnc2n1 (single isomer, unassigned) [Example 106] | > 1240 nM
FS(F)(F)(F)(F)c1ccc(C2(Nc3cc(C4CC4)nc4ncnn34)CC2)cc1 [Example 72, 5-Cyclopropyl-N-{1-[4-(pentafluoro-λ^6-sulfanyl)phenyl]cyclopropyl}[1,2,4] triazolo[1,5-a]pyrimidin-7-amine] | 26 nM
Cc1cc(O[C@@H](c2ccc(C(F)(F)F)cc2)C(C)(C)C)n2ncnc2n1 (single isomer, unassigned) [Example 260] | 14 nM
Fc1cc(C2(Nc3cc(C4CC4)nc4ncnn34)CC2)ccc1C(F)(F)F [Example 70, 5-Cyclopropyl-N-{1-[3-fluoro-4-(trifluoromethyl)phenyl]cyclopropyl}[1,2,4]triazolo[1,5-a]pyrimidin-7-amine] | 3.7 nM
CC(C)(O)C(Nc1cc(C(F)F)nc2ncnn12)c1ccc(OC(F)F)cc1Cl (single isomer, unassigned) [Example 183, (1S or R)-[2-Chloro-4-(difluoromethoxy)phenyl]-1-{[5-(difluoromethyl) [1,2,4]triazolo [1,5-a]pyrimidin-7-yl]amino}-2-methylpropan-2-ol] | 15 nM
OCc1cc(NC2(c3ccc(C(F)(F)F)c(F)c3)CC2)n2ncnc2c1 [Example 266, (5-((1-(3-Fluoro-4-(trifluoromethyl)phenyl)cyclopropyl)amino)-[1,2,4]triazolo[1,5-a]pyridin-7-yl)methanol] | 13 nM
CC(C)(C)[C@@H](Nc1cc(N)nc2ncnn12)c1ccc(C(F)(F)F)c(F)c1 [Example 240, (R)-N^7-(1-(3-Fluoro-4-(trifluoromethyl)phenyl)-2,2-dimethylpropyl)-[1,2,4]triazolo [1,5-a]pyrimidine-5,7-diamine] | 108 nM
Cc1cc(NC(c2ccc(OC(F)F)cc2)C(C)(C)O)n2ncnc2n1 (single isomer, unassigned) [Example 111, (1R or S)-1-[4-(Difluoro-methoxy)phenyl]-2-methyl-1-[(5-methyl[1,2,4]triazolo[1,5-a]pyrimidin-7-yl)amino]propan-2-ol] | 26 nM
Cc1cc(N[C@@H](c2ccc(C(F)(F)F)c(F)c2)C(C)(C)C)n2nc(CO)nc2n1 [Example 206, (R)-(7-(1-(3-Fluoro-4-(trifluoromethyl)phenyl)-2,2-dimethylpropylamino)-5-methyl-[1,2,4]triazolo [1,5-a]pyrimidin-2-yl)methanol] | 184 nM
CCC(O)(CC)C(Nc1cc(C)nc2ncnn12)c1ccc(C(F)(F)F)c(F)c1 (single isomer, unassigned) [Example 216, (S)- or (R)-3-((3-Fluoro-4-(trifluoromethyl)phenyl)(5-methyl-[1,2,4]triazolo [1,5-a]pyrimidin-7-ylamino)methyl) pentan-3-ol] | 134 nM
C[C@H](Nc1cncc2ncnn12)c1ccc(C(F)(F)F)cc1 [Example 289] | > 2960 nM

Continued, values first:

Ki | SMILES
10 nM | CC(C)(O)C(Nc1cc(C(F)F)nc2ncnn12)c1ccc(OC(F)(F)F)cc1F (single isomer, unassigned) [Example 185, (1S or R)-{[5-(Difluoromethyl) [1,2,4]triazolo [1,5-a]pyrimidin-7-yl]amino}-1-[2-fluoro-4-(trifluoromethoxy)phenyl]-2-methylpropan-2-ol]
> 2960 nM | CN(C)c1cc(N[C@H](c2ccc(C(F)(F)F)c(F)c2)C(C)(C)O)n2ncnc2n1 (single isomer, unassigned) [Example 243]
7.8 nM | Cc1cc(N[C@@H](c2ccc(CC(F)(F)F)cc2)C(C)(C)C)n2ncnc2n1 [Example 35, N-{(1R)-2,2-Dimethyl-1-[4-(2,2,2-trifluoroethyl)phenyl]propyl}-5-methyl[1,2,4]triazolo[1,5-a] pyrimidin-7-amine]
24 nM | Cc1cc(N[C@@H](c2ccc(C(F)(F)F)c(F)c2)C(C)(C)C)n2nc(C3CC3)nc2n1 [Example 205, (R)-2-Cyclopropyl-N-(1-(3-fluoro-4-(trifluoromethyl)phenyl)-2,2-dimethylpropyl)-5-methyl-[1,2,4]triazolo [1,5-a]pyrimidin-7-amine]
> 2960 nM | Cc1cc(NC(c2ccc(OC(F)(F)F)cc2F)C(C)(C)O)n2nc(C)nc2n1 (single isomer, unassigned) [Example 134, (1S or R)-1-[(2,5-Dimethyl[1,2,4]triazolo[1,5-a]pyrimidin-7-yl)amino]-1-[2-fluoro-4-(tri-fluoromethoxy)phenyl]-2-methylpropan-2-ol]
> 2960 nM | CC(C)(O)C(Nc1cc(C(F)(F)F)nc2ncnn12)c1ccc(C(F)(F)F)c(F)c1 (single isomer, unassigned) [Example 213, (S)- or (R)-1-(3-Fluoro-4-(trifluoromethyl)phenyl)-2-methyl-1-(5-(trifluoromethyl)-[1,2,4]triazolo [1,5-a]pyrimidin-7-ylamino)propan-2-ol]
183 nM | Cc1cc(N[C@H](c2ccc(C(F)(F)F)c(F)c2)C(C)(C)O)nc2ncnn12 (single isomer, unassigned) [Example 291]
14 nM | Cc1cc(N[C@@H](c2ccc(OC(F)(F)F)c(Cl)c2)C(C)(C)O)n2ncnc2n1 [Example 102, (1S)-1-[3-Chloro-4-(trifluoromethoxy)phenyl]-2-methyl-1-[(5-methyl[1,2,4]triazolo[1,5-a]pyrimidin-7-yl)amino]propan-2-ol]
498 nM | CC(C)(O)[C@H](Nc1cc(C(F)F)cc2ncnn12)c1ccc(S(F)(F)(F)(F)F)cc1 [Example 283, (1R)-1-{[7-(Difluoromethyl) [1,2,4]triazolo[1,5-a]pyridin-5-yl]amino}-2-methyl-1-[4-(pentafluoro-λ^6-sulfanyl)phenyl]propan-2-ol]
22 nM | Cc1cc(N[C@@H](c2ccc(S(F)(F)(F)(F)F)cc2)C2CC2)n2ncnc2n1 [Example 37, N-{(1R)-Cyclopropyl[4-(pentafluoro-λ^6-sulfanyl)phenyl]methyl}-5-methyl[1,2,4]triazolo[1,5-a] pyrimidin-7-amine]
19 nM | Cc1cc(N[C@@H](c2ccc(SC(F)(F)F)c(F)c2)C2CC2)n2ncnc2n1 [Example 41, N-[(R)-Cyclopropyl{3-fluoro-4-[(trifluoromethyl)sulfanyl]phenyl}methyl]-5-methyl[1,2,4]triazolo[1,5-a] pyrimidin-7-amine]
608 nM | Cc1cc(NC2(c3ccc(C(F)(F)F)c(F)c3)CC2)n2nc(N(C)C)nc2n1 [Example 256, N^7-{1-[3-Fluoro-4-(trifluoromethyl)phenyl]cyclopropyl}-N^2,N^2,5-trimethyl[1,2,4]triazolo[1,5-a]pyrimidine-2,7-diamine]
> 2960 nM | CC(C)(O)C(Nc1cc(C(F)F)nc2ncnn12)c1ccc(OC(F)(F)F)c(F)c1 (single isomer, unassigned) [Example 188, (1R or S)-{[5-(Difluoromethyl) [1,2,4]triazolo [1,5-a]pyrimidin-7-yl]amino}-1-[3-fluoro-4-(trifluoromethoxy)phenyl]-2-methylpropan-2-ol]
28 nM | Cc1cc(N[C@@H](c2ccc(C(F)(F)F)c(F)c2)C(C)C)n2ncnc2n1 [Example 20, N-{(1R)-1-[3-Fluoro-4-(trifluoromethyl)phenyl]-2-methylpropyl}-5-methyl[1,2,4]triazolo[1,5-a] pyrimidin-7-amine]
> 2960 nM | Cc1cc(N[C@](C)(c2ccc(OC(F)(F)F)cc2)C(C)(C)O)n2ncnc2n1 [Example 154, (3R)-2-Methyl-3-[(5-methyl[1,2,4]triazolo[1,5-a]pyrimidin-7-yl)amino]-3-[4-(trifluoromethoxy)phenyl]butan-2-ol]
52 nM | CC(C)(O)C(Nc1cc(C(F)(F)F)nc2ncnn12)c1ccc(OC(F)F)cc1 (single isomer, unassigned) [Example 165, (1S or R)-1-[4-(Difluoromethoxy)phenyl]-2-methyl-1-{[5-(trifluoromethyl) [1,2,4]triazolo [1,5-a]pyrimidin-7-yl]amino} propan-2-ol]
